Here are results for 38 molecules from US10273238B2, “Indazolones as modulators of TNF signaling” (AbbVie Inc., priority 2015, dated 2019).

Molecules are shown by their SMILES. Bounds are passed on as bounds.

Chain of TNFα (P01375 77-233 limits assumed): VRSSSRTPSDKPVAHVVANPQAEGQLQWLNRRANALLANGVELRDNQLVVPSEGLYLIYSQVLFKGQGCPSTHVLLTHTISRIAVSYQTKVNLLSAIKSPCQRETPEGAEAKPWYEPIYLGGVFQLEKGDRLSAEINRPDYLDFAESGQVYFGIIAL

This assay concerns the target TNFα (Homo sapiens, UniProt P01375). Briefly: TNFα FP Competitive Binding Assay. To be noted: 20 nM TNFα trimer, 1 nM OregonGreen488 probe, read-out: TNF IC50. As to the method:
TNFα FP Competitive Binding Assay
Prepare 1× Assay Buffer (Water with 47 mil HEPES, 47 mM NaCl, 0.9 mM EDTA, 0.0071% Triton X-100) by adding 25 mL of 1 M HEPES, 5 mL of 5 M NaCl, 1 mL of 0.5 M EDTA, and 375 μL of a 10% Triton X-100 stock to a fresh 500 mL bottle of water.
Prepare fresh Assay Mixture containing 20 nM TNFα trimer (60 nM protein) and 1 nM 2′,7′-difluoro-3′,6′-dihydroxy-N-(2-(2-(2-((4-(isoquinolin-8-yl)-3-(4-(isoquinolin-8-yl)phenethoxy)benzyl)oxy)ethoxy)ethoxy)ethyl)-3-oxo-3H- spiro[isobenzofuran-1,9′-xanthene]-5-carboxamide probe in 1× Assay Buffer.
Top concentration of compounds, 10 mM in DMSO, dispensed in rows A-O in columns 1 and 13. Compounds are serially diluted 1:3 with DMSO in columns 2-12 or 14-24 using a 16-channel Matrix pipettor. Plates stored at −20° C.
Top concentration, 5 mM in DMSO, of compounds placed in rows A-O in columns 1 and 13.
Compounds are serially diluted 1:3 with DMSO in columns 2-12 or 14-24. Compound solutions are dispensed into replicate assay plates at 410 nL per well. Plates stored at 4° C.
TNFα FP Competitive Binding Assay Protocol • 1. Compound plates warmed to rt. • 2. Fresh Assay Mixture is prepared. • 3. Assay Mixture (20 μL) is dispensed each well of 384 assay plates using a Thermo Multidrop Combi or 16-channel Matrix pipettor. If Manual 12-point 1:3 Dilution Plates are to be tested, Assay Mix is dispensed into empty plates. Discovery Preps 12-point 1:3 Dilution Plates already contain 410 nL compound solution in DMSO. • 4. For Manual 12-point 1:3 Dilution Plates, 0.7 μL is manually transferred using a 16-channel Matrix pipettor to replicate assay plates containing 20 μL Assay Mixture for a final top compound concentration of […] (3.4% DMSO). • 5. For Discovery Preps 12-point 1:3 Dilution Plates, 20 μL Assay Mixture added the 410 nL compound solution already in the plates yields a final top compound concentration of 100 μM (2.0% DMSO). • 6. Background subtraction controls are wells P1-P8 containing only Assay Buffer. The low % inhibition controls are wells P9-P16 containing only Assay Mix. The high % inhibition are wells P17-P24 containing only 1 nM 2′,7′-difluoro-3′,6′-dihydroxy-N-(2-(2-(2-((4-(isoquinolin-8-yl)-3-(4-(isoquinolin-8-yl)phenethoxy)benzyl)oxy)ethoxy)ethoxy)ethyl)-3-oxo-3H-spiro[isobenzofuran-1,9′-xanthene]-5-carboxamide probe in 1× Assay Buffer. • 7. Plates are incubated at rt for 18-24 h in […] (CO2 is off). • 8. Prior to reading the assay, the plates are placed in a dark cabinet to equilibrate at rt for one hour. • 9. Background-subtracted fluorescence polarization (mP) is measured using a PerkinElmer Envision plate reader. • 10. Raw data is entered into Assay Explorer and dose-response curves are generated using a variable slope curve.
Usually IC50 stands for the concentration needed to halve the response being measured. Regarding `O=c1c2ccc(-c3cnc(N4CCOCC4)nc3)cc2n2n1CC[C@@H]2c1ccccc1OC(F)F` (single isomer, unassigned) [Example 1.1], the concentration for half-maximal inhibition (IC50) was below 1000 nM.

As for `O=c1c2ccc(-c3cnc(N4CCOCC4)nc3)cc2n2n1CC[C@H]2c1ccccc1OC(F)F` (single isomer, unassigned) [Example 1.2], the half-maximal inhibitory concentration (IC50) is below 1000 nM.

With `COC[C@H]1CCCN1c1ncc(-c2ccc3c(=O)n4n(c3c2)[C@H](c2ccccc2OC(F)F)CC4)cn1` (single isomer, unassigned) [Example 1.4], the half-inhibitory concentration (IC50) lay within 1000 to 10000 nM.

With `COC[C@H]1CCCN1c1ncc(-c2ccc3c(=O)n4n(c3c2)[C@@H](c2ccccc2OC(F)F)CC4)cn1` (single isomer, unassigned) [Example 1.5], the 50% inhibitory concentration (IC50) fell in the range of 1000 to 10000 nM.

Regarding `O=c1c2ccc(-c3cnc(N[C@@H]4CCOC4)nc3)cc2n2n1CC[C@@H]2c1ccccc1OC(F)F` (single isomer, unassigned) [Example 1.6], the half-inhibitory concentration (IC50) lay within 1000 to 10000 nM.

In the case of `O=c1c2ccc(-c3cnc(N4CCO[C@@H](CO)C4)nc3)cc2n2n1CC[C@@H]2c1ccccc1OC(F)F` (single isomer, unassigned) [Example 1.8], the concentration for half-maximal inhibition (IC50) is below 1000 nM.

In the case of `O=c1c2ccc(-c3cnc(N4CCO[C@@H](CO)C4)nc3)cc2n2n1CC[C@H]2c1ccccc1OC(F)F` (single isomer, unassigned) [Example 1.9], the IC50 was below 1000 nM.

With `O=c1c2ccc(-c3cnc(N4CCO[C@H](CO)C4)nc3)cc2n2n1CC[C@H]2c1ccccc1OC(F)F` (single isomer, unassigned) [Example 2.1], the IC50 was below 1000 nM.

`O=c1c2ccc(-c3cnc(N4CCO[C@H](CO)C4)nc3)cc2n2n1CC[C@@H]2c1ccccc1OC(F)F` (single isomer, unassigned) [Example 3.1]: the IC50 is below 1000 nM.

As for `CC(C)(O)c1ncc(-c2ccc3c(=O)n4n(c3c2)[C@H](c2ccccc2OC(F)F)CC4)cn1` (single isomer, unassigned) [Example 4.1], the half-maximal inhibitory concentration (IC50) is 1000 to 10000 nM.

Take `O=C1C[C@@H](CNc2ncc(-c3ccc4c(=O)n5n(c4c3)[C@@H](c3ccccc3OC(F)F)CC5)cn2)CN1` (single isomer, unassigned) [Example 4.3]: the IC50 was in the range of 1000 to 10000 nM.

`O=C1C[C@@H](CNc2ncc(-c3ccc4c(=O)n5n(c4c3)[C@H](c3ccccc3OC(F)F)CC5)cn2)CN1` (single isomer, unassigned) [Example 4.4]: the IC50 was below 1000 nM.

As for `O=C1C[C@H](CNc2ncc(-c3ccc4c(=O)n5n(c4c3)[C@@H](c3ccccc3OC(F)F)CC5)cn2)CN1` (single isomer, unassigned) [Example 4.5], the 50% inhibitory concentration (IC50) was in the range of 1000 to 10000 nM.

On to `O=C1C[C@H](CNc2ncc(-c3ccc4c(=O)n5n(c4c3)[C@H](c3ccccc3OC(F)F)CC5)cn2)CN1` (single isomer, unassigned) [Example 4.6], for which the IC50 fell in the range of 1000 to 10000 nM.

Consider `O=c1c2ccc(-c3cnc(N4CCC5(CC4)CC(O)C5)nc3)cc2n2n1CC[C@@H]2c1ccccc1OC(F)F` (single isomer, unassigned) [Example 4.7], for which the IC50 was below 1000 nM.

For `O=c1c2ccc(-c3cnc(N4CCC5(CC4)CC(O)C5)nc3)cc2n2n1CC[C@H]2c1ccccc1OC(F)F` (single isomer, unassigned) [Example 4.8], the half-maximal inhibitory concentration (IC50) was below 1000 nM.

Regarding `O=C1NC[C@H]2CN(c3ncc(-c4ccc5c(=O)n6n(c5c4)[C@H](c4ccccc4OC(F)F)CC6)cn3)CCN12` (single isomer, unassigned) [Example 5.1], the IC50 is below 1000 nM.

Regarding `O=C1NC[C@@H]2CN(c3ncc(-c4ccc5c(=O)n6n(c5c4)[C@H](c4ccccc4OC(F)F)CC6)cn3)CCN12` (single isomer, unassigned) [Example 5.2], the IC50 was below 1000 nM.

As to `O=C1NC[C@H]2CN(c3ncc(-c4ccc5c(=O)n6n(c5c4)[C@@H](c4ccccc4OC(F)F)CC6)cn3)CCN12` (single isomer, unassigned) [Example 6.1], the IC50 is below 1000 nM.

Regarding `O=C1NC[C@@H]2CN(c3ncc(-c4ccc5c(=O)n6n(c5c4)[C@@H](c4ccccc4OC(F)F)CC6)cn3)CCN12` (single isomer, unassigned) [Example 6.2], the IC50 was below 1000 nM.

Turning to `CC(=O)N1CCN(c2ncc(-c3ccc4c(=O)n5n(c4c3)[C@@H](c3ccccc3OC(F)F)CC5)cn2)C[C@H]1C` (single isomer, unassigned) [Example 6.3], the 50% inhibitory concentration (IC50) was below 1000 nM.

Take `C[C@@H]1CN(c2ncc(-c3ccc4c(=O)n5n(c4c3)[C@@H](c3ccccc3OC(F)F)CC5)cn2)CCN1C(=O)CO` (single isomer, unassigned) [Example 6.4]: the IC50 is below 1000 nM.

For `O=C1c2ccc(-c3cnc(N4CCOCC4)nc3)cc2[C@@H]2[C@H](c3ccccc3OC(F)F)CCN12` (single isomer, unassigned) [Example 9.1], the IC50 is above 10000 nM.

In the case of `O=C1c2ccc(-c3cnc(N4CCOCC4)nc3)cc2[C@H]2[C@@H](c3ccccc3OC(F)F)CCN12` (single isomer, unassigned) [Example 9.2], the half-maximal inhibitory concentration (IC50) is below 1000 nM.

As to `CC(C)(O)c1ncc(-c2ccc3c(c2)[C@@H]2[C@H](c4ccccc4OC(F)F)CCN2C3=O)cn1` (single isomer, unassigned) [Example 10.1], the IC50 is above 10000 nM.

As for `CC(C)(O)c1ncc(-c2ccc3c(c2)[C@H]2[C@@H](c4ccccc4OC(F)F)CCN2C3=O)cn1` (single isomer, unassigned) [Example 10.2], the IC50 was in the range of 1000 to 10000 nM.

Take `COC[C@H]1CCCN1c1ncc(-c2ccc3c(c2)[C@@H]2[C@H](c4ccccc4OC(F)F)CCN2C3=O)cn1` (single isomer, unassigned) [Example 10.3]: the half-maximal inhibitory concentration (IC50) was 1000 to 10000 nM.

For the molecule `COC[C@H]1CCCN1c1ncc(-c2ccc3c(c2)[C@H]2[C@@H](c4ccccc4OC(F)F)CCN2C3=O)cn1` (single isomer, unassigned) [Example 10.4], the IC50 was above 10000 nM.

For the molecule `O=C1NC[C@@H]2CN(c3ncc(-c4ccc5c(c4)[C@H]4[C@@H](c6ccccc6OC(F)F)CCN4C5=O)cn3)CCN12` (single isomer, unassigned) [Example 11.1], the IC50 is below 1000 nM.

As to `O=C1NC[C@H]2CN(c3ncc(-c4ccc5c(c4)[C@H]4[C@@H](c6ccccc6OC(F)F)CCN4C5=O)cn3)CCN12` (single isomer, unassigned) [Example 11.2], the 50% inhibitory concentration (IC50) was below 1000 nM.

Turning to `CC(C)(O)c1ncc(-c2cc3c(cc2F)c(=O)n2n3[C@@H](c3ccccc3OC(F)F)CC2)cn1` (single isomer, unassigned) [Example 12.1], the half-maximal inhibitory concentration (IC50) is below 1000 nM.

Take `CC(C)(O)c1ncc(-c2cc3c(cc2F)c(=O)n2n3[C@H](c3ccccc3OC(F)F)CC2)cn1` (single isomer, unassigned) [Example 12.2]: the half-inhibitory concentration (IC50) is below 1000 nM.

For `Cc1ccc(OC(F)F)c([C@H]2CCn3c(=O)c4cc(F)c(-c5cnc(C(C)(C)O)nc5)cc4n32)c1` (single isomer, unassigned) [Example 13.1], the IC50 was below 1000 nM.

Consider `Cc1ccc(OC(F)F)c([C@@H]2CCn3c(=O)c4cc(F)c(-c5cnc(C(C)(C)O)nc5)cc4n32)c1` (single isomer, unassigned) [Example 13.2], for which the 50% inhibitory concentration (IC50) was below 1000 nM.

Consider `Cc1ccc(OC(F)F)c([C@@H]2CCn3c(=O)c4ccc(-c5cnc(N6CCN7C(=O)NC[C@H]7C6)nc5)cc4n32)c1` (single isomer, unassigned) [Example 14.1], for which the IC50 was below 1000 nM.

Turning to `Cc1ccc(OC(F)F)c([C@H]2CCn3c(=O)c4ccc(-c5cnc(N6CCN7C(=O)NC[C@H]7C6)nc5)cc4n32)c1` (single isomer, unassigned) [Example 15.1], the 50% inhibitory concentration (IC50) was below 1000 nM.

Turning to `Cc1ccc(OC(F)F)c([C@H]2CCn3c(=O)c4ccc(-c5cnc(C(C)(C)O)nc5)cc4n32)c1` (single isomer, unassigned) [Example 15.2], the IC50 is below 1000 nM.

`O=c1c2ccc(-c3cnc(N4CCOCC4)nc3)cc2n2n1CCC2c1ccccc1OC(F)F` (centres unmarked) [Example 1, 3-(2-(Difluoromethoxy)phenyl)-6-(2-morpholinopyrimidin-5-yl)-2,3-dihydropyrazolo[1,2-a]indazol-9(1H)-one]: the IC50 is below 1000 nM.
